Measured values from patent US10745360B2, “Quinoxaline compounds, method for preparing the same and use thereof” (Development Center for Biotechnology, priority 2014, dated 2020).

Experiments:
[1] = molecular target: T1, B-Raf kinase (Homo sapiens, UniProt P15056); experiment: B-Raf kinase assay ([33P] incorporation into MEK1 K97R); format: biochemical; conditions: recombinant B-Raf, 8 μM ATP, 30 min, 30° C.; read-out: IC50 ranking against B-Raf kinase
T1 construct: purchased Upstate Biotechnology
Procedure, shortened: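 Recombinant B-Raf (5 ng) phosphorylating MEK1 K97R (500 ng) with 8 μM ATP plus [33P]ATP in Tris/HCl pH 7.5 buffer, 30 min at 30° C. Filter-captured 33P counted by scintillation; IC50 from 3-fold serial dilutions run in duplicate.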

[2] = molecular target: T2, B-Raf^V600E kinase (Homo sapiens, UniProt P15056, V600E); experiment: B-Raf V600E kinase assay ([33P] incorporation into MEK1 K97R); format: biochemical; conditions: recombinant B-Raf^V600E, 8 μM ATP, 30 min, 30° C.; read-out: IC50 ranking against B-Raf^V600E kinase
T2 construct: purchased Upstate Biotechnology
Procedure, shortened: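 Recombinant B-Raf V600E (5 ng) phosphorylating MEK1 K97R (500 ng) with 8 μM ATP plus [33P]ATP in Tris pH 7.5 buffer, 30 min at 30 °C. Filter-bound 33P counted by scintillation; IC50 from 3-fold dilution series in duplicate.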

[3] = molecular target: T3, C-Raf kinase (Homo sapiens, UniProt P04049); experiment: C-Raf kinase assay ([33P] incorporation into MEK1 K97R); format: biochemical; conditions: recombinant C-Raf, 8 μM ATP, 30 min, 30° C.; read-out: IC50 ranking against C-Raf kinase
T3 construct: purchased Upstate Biotechnology
Procedure, shortened: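 Recombinant C-Raf (2 ng) phosphorylating MEK1(K97R) with 8 μM ATP plus [33P]ATP, pH 7.5 Tris buffer, 30 min at 30° C. Acid-stopped, filter-captured 33P counted by scintillation; IC50 from 3-fold dilution series run in duplicate.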

[4] = system: B-Raf^V600E mutant A375 melanoma cell; experiment: Cell proliferation assay (CELLTITER 96), A375; format: cell-based; conditions: Homo sapiens, A-375; A375, 72 hours; read-out: Cytotoxicity (IC50 Ranking) A375 (B-Raf^V600E)
Procedure, shortened: (§1)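 Cells seeded overnight (A375 and COLO205 at 2000, SK-MEL-2 at 4000 cells/well), then exposed to increasing compound concentrations for 72 h at 37° C. Viability read by MTS absorbance at 490 nm after 4 h reagent; IC50 from curve fit of percent growth inhibition versus concentration.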

[5] = system: B-Raf^V600E mutant COLO205 colon cancer cell; experiment: Cell proliferation assay (CELLTITER 96), COLO205; format: cell-based; conditions: Homo sapiens, COLO 205; COLO205, 72 hours; read-out: Cytotoxicity (IC50 Ranking) COLO205 (B-Raf^V600E)
Procedure, shortened: as §1

[6] = system: SK-MEL-2 melanoma cell with wild type B-Raf (B-Raf^wt) and NRAS^Q61R mutation; experiment: Cell proliferation assay (CELLTITER 96), SK-MEL-2; format: cell-based; conditions: Homo sapiens; SK-MEL-2, 72 hours; given as bound; read-out: Cytotoxicity (IC50 Ranking) SK-MEL-2 (NRAS^Q61R, B-Raf^wt)
Procedure, shortened: as §1

T2 sequence (P15056 whole entry V600E): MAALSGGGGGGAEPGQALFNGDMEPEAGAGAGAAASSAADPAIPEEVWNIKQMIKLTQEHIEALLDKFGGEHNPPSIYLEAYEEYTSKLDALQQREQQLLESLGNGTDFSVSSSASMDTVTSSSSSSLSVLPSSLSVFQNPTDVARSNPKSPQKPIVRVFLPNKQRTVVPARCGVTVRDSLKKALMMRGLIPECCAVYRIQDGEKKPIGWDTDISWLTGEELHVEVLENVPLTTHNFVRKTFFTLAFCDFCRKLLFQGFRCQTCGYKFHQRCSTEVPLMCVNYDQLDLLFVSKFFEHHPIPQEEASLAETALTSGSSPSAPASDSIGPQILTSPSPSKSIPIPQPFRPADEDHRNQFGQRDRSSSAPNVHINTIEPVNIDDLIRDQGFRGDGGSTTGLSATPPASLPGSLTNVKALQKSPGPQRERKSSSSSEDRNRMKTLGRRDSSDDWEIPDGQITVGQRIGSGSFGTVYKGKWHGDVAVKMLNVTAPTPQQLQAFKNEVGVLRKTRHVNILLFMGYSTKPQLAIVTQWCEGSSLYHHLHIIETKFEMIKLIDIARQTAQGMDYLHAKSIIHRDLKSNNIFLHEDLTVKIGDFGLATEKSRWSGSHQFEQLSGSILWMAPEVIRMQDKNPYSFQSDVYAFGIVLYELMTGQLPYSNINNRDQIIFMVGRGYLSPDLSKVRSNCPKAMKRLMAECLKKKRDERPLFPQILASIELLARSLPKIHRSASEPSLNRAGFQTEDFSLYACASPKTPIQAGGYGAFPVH
T1 sequence (P15056 whole entry): as the sequence (P15056 whole entry V600E) above, with E600V counted along it
T3 sequence (P04049 whole entry): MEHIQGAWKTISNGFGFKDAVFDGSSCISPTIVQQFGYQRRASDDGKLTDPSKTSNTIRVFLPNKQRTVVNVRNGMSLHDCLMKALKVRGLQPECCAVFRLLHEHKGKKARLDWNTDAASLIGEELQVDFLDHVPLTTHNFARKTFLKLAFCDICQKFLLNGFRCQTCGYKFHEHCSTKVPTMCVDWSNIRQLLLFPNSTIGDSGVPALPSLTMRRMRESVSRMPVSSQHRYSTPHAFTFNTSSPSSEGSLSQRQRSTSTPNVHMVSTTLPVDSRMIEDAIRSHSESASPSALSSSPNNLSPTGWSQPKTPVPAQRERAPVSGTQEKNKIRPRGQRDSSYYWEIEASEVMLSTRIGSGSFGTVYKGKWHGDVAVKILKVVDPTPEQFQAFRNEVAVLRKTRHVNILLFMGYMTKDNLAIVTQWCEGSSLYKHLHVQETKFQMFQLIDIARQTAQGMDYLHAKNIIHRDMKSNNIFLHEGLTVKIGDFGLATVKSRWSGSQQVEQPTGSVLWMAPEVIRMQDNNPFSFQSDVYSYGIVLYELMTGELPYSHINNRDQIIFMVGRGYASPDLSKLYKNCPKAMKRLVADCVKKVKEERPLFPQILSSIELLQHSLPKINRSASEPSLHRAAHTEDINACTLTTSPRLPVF

| SMILES | IC50 [1] | IC50 [2] | IC50 [3] | IC50 [4] | IC50 [5] | IC50 [6] |
| --- | --- | --- | --- | --- | --- | --- |
| CCCS(=O)(=O)Nc1ccc(F)c(Nc2ccc3ncc(OC)nc3c2C#N)c1Cl [compound 46, N-(2-chloro-3-(5-cyano-3-methoxyquinoxalin-6-ylamino)-4-fluorophenyl)propane-1-sulfonamide] | < 300 nM | < 300 nM | < 300 nM | < 300 nM | < 300 nM | > 10000 nM |
| COc1cnc2ccc(Nc3c(F)ccc(NS(=O)(=O)c4ccccc4)c3Cl)c(C#N)c2n1 [compound 47, N-(2-chloro-3-(5-cyano-3-methoxyquinoxalin-6-ylamino)-4-fluorophenyl)benzenesulfonamide] | < 300 nM | < 300 nM | < 300 nM | < 300 nM | < 300 nM | > 10000 nM |
| CCCS(=O)(=O)Nc1ccc(F)c(Nc2ccc3ncc(N4CCOCC4)nc3c2C#N)c1Cl [compound 48, N-(2-chloro-3-(5-cyano-3-morpholinoquinoxalin-6-ylamino)-4-fluorophenyl)propane-1-sulfonamide] | < 300 nM | < 300 nM | < 300 nM | < 300 nM | < 300 nM | > 10000 nM |
| N#Cc1c(Nc2c(F)ccc(NS(=O)(=O)c3ccccc3)c2Cl)ccc2ncc(N3CCOCC3)nc12 [compound 49, N-(2-chloro-3-(5-cyano-3-morpholinoquinoxalin-6-ylamino)-4-fluorophenyl)benzenesulfonamide] | < 300 nM | < 300 nM | < 300 nM | < 300 nM | < 300 nM | > 10000 nM |
| CCCS(=O)(=O)Nc1cccc(Nc2ccc3ncc(OC)nc3c2C#N)c1C#N [compound 50, N-(2-cyano-3-(5-cyano-3-methoxyquinoxalin-6-ylamino)phenyl)propane-1-sulfonamide] | < 300 nM | < 300 nM | < 300 nM | < 300 nM | < 300 nM | > 10000 nM |
